Laboratory results from patent US10131652B2, “Pyrimidinyloxy benzene derivatives as herbicides” (E. I. DU PONT DE NEMOURS AND COMPANY, priority 2014, dated 2018).

What was measured:
Assay in all cases: Test D pre-/postemergence plant response
Type in all cases: in vivo
Conditions in all cases: Postemergence
[1] = test system: winter wheat (Triticum aestivum)
Description: (§1) Seeds of plant species selected from blackgrass (Alopecurus myosuroides), Italian ryegrass (Lolium multiflorum), winter wheat (Triticum aestivum), galium (catchweed bedstraw, Galium aparine), corn (Zea mays), large (Lg) crabgrass (Digitaria sanguinalis), giant foxtail (Setaria faberii), johnsongrass (Sorghum halepense), lambsquarters (Chenopodium album), morningglory (Ipomoea coccinea), yellow nutsedge (Cyperus esculentus), pigweed (Amaranthus retroflexus), ragweed (common ragweed, Ambrosia elatior), soybean (Glycine max), bamyardgrass (Echinochloa crus-galli), oilseed rape (Brassica napus), waterhemp (common waterhemp, Amaranthus rudis), and velvetleaf (Abutilon theophrasti) were planted into a blend of loam soil and sand and treated preemergence with test chemicals formulated in a non-phytotoxic solvent mixture which included a surfactant. At the same time, plants selected from these crop and weed species and also kochia (Kochia scoparia), wild oat (Avena fatua), and chickweed (common chickweed, Stellaria media) were planted in pots containing Redi-Earth® planting medium (Scotts Company, 14111 Scottslawn Road, Marysville, Ohio 43041) comprising spaghnum peat moss, vermiculite, wetting agent and starter nutrients and treated with postemergence applications of test chemicals formulated in the same manner. Plants ranged in height from 2 to 18 cm (1- to 4-leaf stage) for postemergence treatments. Treated plants and controls were maintained in a greenhouse for 13 to 15 days, after which time all species were compared to controls and visually evaluated. Plant response ratings, summarized in Table D, are based on a scale of 0 to 100 where 0 is no effect and 100 is complete control. A dash (-) response means no test result.

[2] = test system: giant foxtail (Setaria faberii)
Description: as §1

[3] = test system: blackgrass (Alopecurus myosuroides)
Description: as §1

soybean (Glycine max) = test system: soybean (Glycine max)
Description: as §1

[4] = test system: velvetleaf (Abutilon theophrasti)
Description: as §1

[5] = test system: pigweed (Amaranthus retroflexus)
Description: as §1

[6] = test system: large (Lg) crabgrass (Digitaria sanguinalis)
Description: as §1

[7] = test system: lambsquarters (Chenopodium album)
Description: as §1

[8] = test system: oilseed rape (Brassica napus)
Description: as §1

[9] = test system: galium (catchweed bedstraw, Galium aparine)
Description: as §1

[10] = test system: Italian ryegrass (Lolium multiflorum)
Description: as §1

[11] = test system: ragweed (common ragweed, Ambrosia elatior)
Description: as §1

[12] = test system: morningglory (Ipomoea coccinea)
Description: as §1

[13] = test system: yellow nutsedge (Cyperus esculentus)
Description: as §1

[14] = test system: waterhemp (common waterhemp, Amaranthus rudis)
Description: as §1

[15] = test system: johnsongrass (Sorghum halepense)
Description: as §1

[16] = test system: barnyardgrass (Echinochloa crus-galli)
Description: as §1

corn (Zea mays) = test system: corn (Zea mays)
Description: as §1

[17] = 31 g ai/ha, scale 0 to 100 (0 no effect, 100 complete control)
[18] = 62 g ai/ha, scale 0 to 100, 0 no effect, 100 complete control
[19] = 125 g ai/ha, scale 0 to 100, 0 no effect, 100 complete control

## Cc1cc(-c2c(F)cccc2Oc2ncc(Br)cn2)on1 [Compound 230]
[1]; 16 g ai/ha
  Plant response rating (scale 0 to 100), Wheat: 5
[1]; [17]
  Wheat plant response rating: 5
[1]; [18]
  Wheat plant response rating: 5
[1]; [19]
  Plant response rating, Wheat: 15
[2]; 16 g ai/ha
  Plant response rating (scale 0 to 100), Foxtail, Giant: 5
[2]; [17]
  Foxtail, Giant plant response rating: 5
[2]; [18]
  Foxtail, Giant plant response rating: 10
[2]; [19]
  Plant response rating, Foxtail, Giant: 10
[3]; 16 g ai/ha
  Plant response rating (scale 0 to 100), Blackgrass: 0
[3]; [17]
  Blackgrass plant response rating: 10
[3]; [18]
  Blackgrass plant response rating: 10
[3]; [19]
  Plant response rating, Blackgrass: 10
Soybean (Glycine max); 16 g ai/ha
  Plant response rating (scale 0 to 100), Soybean: 50
Soybean (Glycine max); [17]
  Soybean plant response rating: 55
Soybean (Glycine max); [18]
  Soybean plant response rating: 65
Soybean (Glycine max); [19]
  Plant response rating, Soybean: 85
[4]; 16 g ai/ha
  Plant response rating (scale 0 to 100), Velvetleaf: 25
[4]; [17]
  Velvetleaf plant response rating: 40
[4]; [18]
  Velvetleaf plant response rating: 55
[4]; [19]
  Plant response rating, Velvetleaf: 65
[5]; 16 g ai/ha
  Plant response rating (scale 0 to 100), Pigweed: 60
[5]; [17]
  Pigweed plant response rating: 65
[5]; [18]
  Pigweed plant response rating: 70
[5]; [19]
  Plant response rating, Pigweed: 85
[6]; 16 g ai/ha
  Plant response rating (scale 0 to 100), Crabgrass, Large: 0
[6]; [17]
  Crabgrass, Large plant response rating: 5
[6]; [18]
  Crabgrass, Large plant response rating: 5
[6]; [19]
  Plant response rating, Crabgrass, Large: 10
[7]; 16 g ai/ha
  Plant response rating (scale 0 to 100), Lambsquarters: 55
[7]; [17]
  Lambsquarters plant response rating: 70
[7]; [18]
  Lambsquarters plant response rating: 80
[7]; [19]
  Plant response rating, Lambsquarters: 70
[8]; 16 g ai/ha
  Plant response rating (scale 0 to 100), Oilseed Rape: 50
[8]; [17]
  Oilseed Rape plant response rating: 60
[8]; [18]
  Oilseed Rape plant response rating: 75
[8]; [19]
  Plant response rating, Oilseed Rape: 75
[9]; 16 g ai/ha
  Plant response rating (scale 0 to 100), Galium: 80
[9]; [17]
  Galium plant response rating: 85
[9]; [18]
  Galium plant response rating: 85
[9]; [19]
  Plant response rating, Galium: 95
[10]; 16 g ai/ha
  Plant response rating (scale 0 to 100), Ryegrass, Italian: 0
[10]; [17]
  Ryegrass, Italian plant response rating: 0
[10]; [18]
  Ryegrass, Italian plant response rating: 5
[10]; [19]
  Plant response rating, Ryegrass, Italian: 5
[11]; 16 g ai/ha
  Plant response rating (scale 0 to 100), Ragweed: 30
[11]; [17]
  Ragweed plant response rating: 40
[11]; [18]
  Ragweed plant response rating: 55
[11]; [19]
  Plant response rating, Ragweed: 55
[12]; 16 g ai/ha
  Plant response rating (scale 0 to 100), Morningglory: 5
[12]; [17]
  Morningglory plant response rating: 5
[12]; [18]
  Morningglory plant response rating: 5
[12]; [19]
  Plant response rating, Morningglory: 70
[13]; 16 g ai/ha
  Plant response rating (scale 0 to 100), Nutsedge, Yellow: 0
[13]; [17]
  Nutsedge, Yellow plant response rating: 0
[13]; [18]
  Nutsedge, Yellow plant response rating: 5
[13]; [19]
  Plant response rating, Nutsedge, Yellow: 5
[14]; 16 g ai/ha
  Plant response rating (scale 0 to 100), Waterhemp: 65
[14]; [17]
  Waterhemp plant response rating: 70
[14]; [18]
  Waterhemp plant response rating: 75
[14]; [19]
  Plant response rating, Waterhemp: 80
[15]; 16 g ai/ha
  Plant response rating (scale 0 to 100), Johnsongrass: 0
[15]; [17]
  Johnsongrass plant response rating: 0
[15]; [18]
  Johnsongrass plant response rating: 5
[15]; [19]
  Plant response rating, Johnsongrass: 5
[16]; 16 g ai/ha
  Plant response rating (scale 0 to 100), Barnyardgrass: 5
[16]; [17]
  Barnyardgrass plant response rating: 5
[16]; [18]
  Barnyardgrass plant response rating: 10
[16]; [19]
  Plant response rating, Barnyardgrass: 5
Corn (Zea mays); 16 g ai/ha
  Plant response rating (scale 0 to 100), Corn: 0
Corn (Zea mays); [17]
  Corn plant response rating: 0
Corn (Zea mays); [18]
  Corn plant response rating: 0
Corn (Zea mays); [19]
  Plant response rating, Corn: 15
